Laboratory results taken from patent publication US5212075A, “Compositions and methods for introducing effectors to pathogens and cells” (priority 1991, dated 1993).

Columns and labels:
[1] = tested on: E. coli K1 pilA+::tetR; experiment: microbe, parasite or virus in culture; format: cell-based; conditions: for IC100: Escherichia coli, 0.05 h, read-out: Concentration causing total inhibition of yeast agglutination; for Relative Inhibitory Activity: concentration of methyl α-D-mannopyranoside divided by the concentration of the compound
Procedure: Compounds 4, 6-9 and 12 were assayed for bacterial receptor binding using agglutination studies with yeast cells and their inhibitory activity was compared to that of methyl α-D-mannopyranoside 13 (Firon et al. (1983) Carbohydrate Research 120:235; Eshdat et al. (1978) Biochem. Biophys. Res. Commun. 85:1551; and Firon et al. (1982) Biochem. Biophys. Res. Commun. 105:1426. The bacterial strain used in our study was a systemically invasive E. coli K1 pilA+::tetR strain that is responsible for sepsis and meningitis in human infants (Bloch et al. (1990) Infection and Immunity 58:275). A summary of the results is given in Table 2.
^a E. coli K1 pilA+::tetR were grown for 24 h at 37° C. on
solid LB media supplemented with tetracycline and were suspended with a
cotton swab in 4 mL of Dulbecco's PBS to a final dilution of 2 ×
10^8 cells/mL. Yeast (Saccharomyces cerevisiae, wild type) were grown
for 36 h on solid YPD media at 30° C. and were suspended with a
cotton swab in 4 mL of Dulbecco's PBS to a final dilution of 1 ×
10^8 cells mL. Protein concentrations were determined by BCA Protein
Assay (Pierce). Agglutination assays were performed on a 20 well ceramic
ring plate. Typically, 90 μl of a solution of the test compound was
combined with 30 μl of the bacterial suspension. After 30 seconds, 30
μl of the yeast suspension was added to give a final volume of 150
μl and the wells were allowed to develop for 3 min. with agitation. A
μl aliquot was removed from each well and spread onto a standard
microscope slide. The slides were quickly heat fixed and mounted with 10
μl of glycerol. The slides were examined under phase contrast at
500× magnification using a Zeiss Axioskip microscope. Agglutination
was observed as clusters of cells. total inhibition of agglutination was
determined by the observation of single cells only.
^b Concentration causing total inhibition of yeast agglutination.

[2] = tested on: complement (Clq); experiment: Binding of complement (Clq) to anti-avidin (IgG2) bound to E. coli through the hybrid molecule
Description: Clq binding is the first step in the complement cascase which is part of the humoral response.

[3] = tested on: E. coli cell; experiment: Localization of protein A-gold particles on the E. coli cell surface by transmission electron microscopy; format: cell-based; conditions: avidin, anti-avidin antibodies, protein A labelled with gold particles (15 nm); no localization without hybrid molecule
Description: The particles were bound through a hybrid molecule consisting of a mannose binding moiety attached to biotin through a carbon linkage. Avidin, anti-avidin antibodies, and protein A labelled with the gold particles were exposed to cell and completed a bridge binding the gold particles. The location of a gold particle is shown by the arrow.
FIG. 6 is an electron micrograph showing a strain of E. coli, similar to that illustrated in FIG. 5, in the absence of the hybrid molecule. The cell was exposed to avidin, anti-avidin antibodies, and protein A labelled with gold particles. No localization of the gold particles was achieved without the hybrid molecules.
E coli cells bound with avidin, as described above, were sequentially exposed to anti-avidin antibodies and gold (15 nm) colloidal particles bound to protein A. It was expected that the gold would localize on the E. coli cell surface through an antibody-protein A bridge. Localization on bacterial pili was confirmed by transmission electron microscopy (TEM). The results are shown in FIG. 5 (typical gold particle shown by arrow) and FIG. 6 (control where E. coli cells incubated with protein A-gold without anti-avidin antibody).

Molecule | IC100 [1] | Relative Inhibitory Activity [1] | also measured
CCC[C@H]1O[C@H](CO)[C@@H](O)[C@H](O)[C@@H]1O [Compound 4] | 7000 µM | 9.6 | 
O=C(O)CC[C@H]1O[C@H](CO)[C@@H](O)[C@H](O)[C@@H]1O [Compound 6] | 47000 µM | 1.4 | 
NCCC[C@H]1O[C@H](CO)[C@@H](O)[C@H](O)[C@@H]1O [Compound 7] | 40000 µM | 1.7 | 
OCCC[C@H]1O[C@H](CO)[C@@H](O)[C@H](O)[C@@H]1O [Compound 8] | 13000 µM | 5.2 | 
O=C(CCCC[C@@H]1SC[C@@H]2NC(=O)N[C@@H]21)NCCC[C@H]1O[C@H](CO)[C@@H](O)[C@H](O)[C@@H]1O [Compound 9] | 7000 µM | 9.6 | Clq binding to anti-avidin (IgG2) bound to E. coli [2]: has also been shown; Localization of gold particles on the E. coli surface (TEM) [3]: localization of gold particles on the surface of an E. coli cell
CCC[C@@H]1O[C@H](CO)[C@@H](O)[C@H](O)[C@@H]1O [Compound 12] |  |  | Inhibitory activity on agglutination ([1]; at a concentration of 100 mM): no inhibitory activity
CO[C@H]1O[C@H](CO)[C@@H](O)[C@H](O)[C@@H]1O [Compound 13, methyl α-D-mannopyranoside, reference compound] | 67000 µM | 1 | 
O=[N+]([O-])c1ccc(O[C@H]2O[C@H](CO)[C@@H](O)[C@H](O)[C@@H]2O)cc1 [Compound 14, reference compound] | 1600 µM | 42 | 
avidin: avidin alone, a soluble glycosylated protein used in place of streptavidin [reference compound] |  |  | Concentration causing total inhibition of yeast agglutination ([1]; E. coli K1 pilA+::tetR with Saccharomyces cerevisiae, 3 min, single cells only under phase contrast): 0.4 mM
